According to article PMC4383706 (Cancer prevention research (Philadelphia, Pa.), 2015):
“Also recorded” adds a separate entry of the source. Like-named read-outs stand apart in the source and are kept apart here.

Key:
[1] = system: OH-BBN-induced urinary bladder cancers; details: prior studies; at their HEDs (aspirin at doses in substantial excess of its HED), even when initiated after pre-invasive microscopic cancers; cited from earlier work
urinary bladder cancer = details: dogs; cited from earlier work
[2] = system: OH-BBN-induced urinary bladder cancers; test: OH-BBN-induced urinary bladder cancer model; assay type: in vivo, Female Fischer-344 rats; details: for number of rats with large urinary bladder cancers (>200 mg) at end of study: vehicle 24/25; for final weights of urinary bladder plus cancers vs vehicle control: end of study, Supplementary Fig. 1A/1B
colon adenomas = details: cited from earlier work
[3] = NPX 40 mg/Kg BW gavage; for CI: serum
[4] = system: OH-BBN-induced urinary bladder cancers; details: NPX limited treatment vs vehicle; Supplementary Fig. 3
[5] = humans; cited from earlier work
[6] = system: colon, bladder, skin tumors; details: doses which correspond to human doses of 100 or 325 mg; cited from earlier work
[7] = multiple clinical studies; cited from earlier work
[8] = rats, omeprazole levels at the human equivalent dose; cited from earlier work
[9] = low to moderate doses of aspirin

CC1=C(CC(=O)O)c2cc(F)ccc2/C1=C\c1ccc([S+](C)[O-])cc1 (stereo not shown) [sulindac]
blocking the development of large palpable cancers [1]: effective

COc1ccc2cc([C@H](C)C(=O)OCCCCO[N+](=O)[O-])ccc2c1 [NO-NPX]
blocking the development of large palpable cancers [1]: effective

CN1C(C(=O)Nc2ccccn2)=C(O)c2ccccc2S1(=O)=O [Piroxicam]
therapeutic efficacy in urinary bladder cancer (urinary bladder cancer): has shown therapeutic efficacy

CN(CCOc1ccc(CC2SC(=O)NC2=O)cc1)c1ccccn1 (stereo not shown) [rosiglitazone]
tumor latency ([2]; rosiglitazone 10 mg/kg BW/day by gavage, 10 rats): greatly decreased tumor latency

Cc1ccc(-c2cc(C(F)(F)F)nn2-c2ccc(S(N)(=O)=O)cc2)cc1 [celecoxib]
blocking the development of large palpable cancers [1]: effective
decrease in advanced adenomas (colon adenomas; clinical trial): 55–65%
decrease in total colon adenomas (colon adenomas; clinical trial): ~45%

COc1ccc2cc([C@H](C)C(=O)O)ccc2c1 [NPX, naproxen]
number of rats with large urinary bladder cancers (>200 mg) at end of study ([2]; 1 week daily NPX (40 mg/kg BW/day)/1week vehicle (Group B)): 6/29
number of rats with large urinary bladder cancers (>200 mg) at end of study ([2]; 3 week daily NPX (40 mg/kg BW/day)/3 week vehicle (Group C)): 5/28
rats with palpable cancers, protocol C ([2]; 3 weeks daily NPX/3 week vehicle, vehicle 96%, P<0.01): 19%
inhibition of urinary bladder cancer formation ([2]; NPX by gavage daily, 1 week on/1 week off, or 3 weeks on/3 weeks off, P<.005): 73–82%
rats with palpable cancers, protocol A ([2]; NPX daily, beginning 2 weeks after last OH-BBN, vehicle 96%, P<0.01): 27%
reduction of urinary bladder cancer incidence ([2]; NPX daily, P<0.01): approximately 75%
final weights of urinary bladder plus cancers vs vehicle control [2]: final weights were higher in vehicle controls than in any of the three NPX treatment groups; also recorded: significantly different from control
time for which serum levels greater than 100 uM were achieved following gavage [3]: less than 6 hours
CI ([3]; 14 Day (14 consecutive days)): 0.817 mL/min/kg
CI ([3]; 24 hour (1 day) time point): 0.967 mL/min/kg
levels of phosphorylated AKT (S473) [4]: slightly, but significantly, decrease
phosphorylation of PI3K [4]: slightly, but significantly, decrease
blocking the development of large palpable cancers [1]: effective
accumulation in urine [5]: preferentially accumulates in urine

CC(=O)Oc1ccccc1C(=O)O [aspirin]
blocking the development of large palpable cancers [1]: effective
decrease in advanced adenomas (colon adenomas; [9]): 35–40%
decrease in total adenomas (colon adenomas; [9]): 20–25%
preventive efficacy in animal models [6]: routinely ineffective

COc1ccc2[nH]c([S+]([O-])Cc3ncc(C)c(OC)c3C)nc2c1 (stereo not shown) [omeprazole]
final weights of urinary bladder plus cancers vs vehicle control [2]: larger in size than tumors in rats given the vehicle alone
decrease of GI bleeding [7]: 50–75%
acidity of the stomach [8]: decreased the acidity of the stomach
